Reference: patent US6040434A, “Aldehyde oxidase inhibitors for treatment of aids” (priority 1997, dated 2000)

How the values were obtained:
[1] = tested on: S9 fraction of human liver; test: AMT formation from AZT by human liver S9 fraction / human liver samples; assay type: in vitro ADME
From the text: (§1) Hamster livers were processed by the same method.
(§2) This reduced the experimental variability and simplified the procedure. […] The method was as follows.
(§3) AMT formation by a human liver S9 fraction was compared with that by a hamster liver S9 fraction, as the hamster has the highest documented level of liver aldehyde oxidase activity (Kitamura, 1984; by Sugihara, 1996).

[2] = molecular target: T1, S9 fraction of human liver (Homo sapiens, UniProt Q06278); test: as above; assay type: in vitro ADME; settings: human liver samples; conversion of AZT to AMT
T1 construct: Human liver samples stored at -70° C. were partially thawed, homogenized; from tissue; host or cells: human liver, S9 fraction (9000 g supernatant)
T1 sequence (Q06278 1-1338): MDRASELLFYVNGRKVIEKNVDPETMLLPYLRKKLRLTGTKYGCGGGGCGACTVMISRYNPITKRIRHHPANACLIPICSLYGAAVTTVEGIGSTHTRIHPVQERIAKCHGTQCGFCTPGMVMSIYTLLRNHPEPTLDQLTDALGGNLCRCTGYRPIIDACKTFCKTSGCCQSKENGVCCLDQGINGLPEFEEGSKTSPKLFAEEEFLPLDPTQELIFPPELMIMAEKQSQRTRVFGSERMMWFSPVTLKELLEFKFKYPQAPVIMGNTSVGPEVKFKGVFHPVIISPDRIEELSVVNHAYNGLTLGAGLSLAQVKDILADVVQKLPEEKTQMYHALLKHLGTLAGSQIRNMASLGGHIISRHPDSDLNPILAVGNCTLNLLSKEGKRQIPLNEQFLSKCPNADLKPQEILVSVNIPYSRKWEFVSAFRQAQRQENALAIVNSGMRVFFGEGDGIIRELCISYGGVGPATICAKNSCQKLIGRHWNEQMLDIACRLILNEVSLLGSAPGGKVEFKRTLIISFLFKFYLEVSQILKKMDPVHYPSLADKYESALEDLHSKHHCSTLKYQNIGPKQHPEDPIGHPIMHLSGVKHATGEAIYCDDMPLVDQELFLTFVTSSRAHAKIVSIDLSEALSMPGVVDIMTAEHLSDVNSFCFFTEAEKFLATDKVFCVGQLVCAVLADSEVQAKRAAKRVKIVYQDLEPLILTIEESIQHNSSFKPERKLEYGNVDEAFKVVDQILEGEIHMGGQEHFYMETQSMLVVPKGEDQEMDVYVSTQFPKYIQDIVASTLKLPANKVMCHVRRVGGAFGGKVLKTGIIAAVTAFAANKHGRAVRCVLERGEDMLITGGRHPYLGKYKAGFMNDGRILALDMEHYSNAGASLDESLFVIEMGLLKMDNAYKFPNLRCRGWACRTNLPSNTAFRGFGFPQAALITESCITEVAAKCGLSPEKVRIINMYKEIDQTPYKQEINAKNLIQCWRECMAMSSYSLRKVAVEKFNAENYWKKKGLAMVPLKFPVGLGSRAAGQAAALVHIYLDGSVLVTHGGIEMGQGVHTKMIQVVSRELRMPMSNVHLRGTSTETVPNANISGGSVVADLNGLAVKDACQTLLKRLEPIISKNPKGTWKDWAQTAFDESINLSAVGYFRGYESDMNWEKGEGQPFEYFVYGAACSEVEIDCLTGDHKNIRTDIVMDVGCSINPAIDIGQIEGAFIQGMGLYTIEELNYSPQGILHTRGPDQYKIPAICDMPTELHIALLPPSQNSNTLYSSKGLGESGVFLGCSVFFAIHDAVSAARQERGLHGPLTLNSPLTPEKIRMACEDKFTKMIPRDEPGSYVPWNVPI
From the text: as §1, §2, §3

retroviral replication = settings: cited from earlier work
bone marrow = settings: cited from earlier work
[3] = in words; Veal et al., 1995; cited from earlier work
[4] = tested on: microsomal cytochrome P450 isozymes and microsomal NADPH-cytochrome P450 reductase; settings: in words; Eagling (1994); cited from earlier work

## Cc1cn([C@H]2C[C@H](N=[N+]=[N-])[C@@H](CO)O2)c(=O)[nH]c1=O [AZT, 3'-azido-3'-deoxythymidine]
[1]
  share of AMT formation due to microsomal enzyme activity: less than 10%
[2]
  share of AMT formation due to cytosolic aldehyde oxidase (2-OHP-dependent): ≥ 90%
Retroviral replication
  inhibition of retroviral replication: potent inhibitor of retroviral replication
Bone marrow; depending on dosage and disease stage
  patients treated with AZT suffering bone marrow toxicity: up to 51%
Bone marrow; in words
  side-effect of bone marrow toxicity: bone marrow toxicity, resulting in granulocytopenia and anemia
[3]
  pathways of metabolism and elimination: The predominant pathway of metabolism is by glucuronide formation and renal excretion
[4]
  conversion of AZT to AMT by human liver microsomes: the conversion was mediated by both microsomal cytochrome P450 isozymes and microsomal NADPH-cytochrome P450 reductase
